The values below come from ChEMBL document CHEMBL3352244, “Synthesis and biological activity of 5-(4-methoxyphenyl)-oxazole derivatives” (Bioorg Med Chem Lett, 2015).

Values after ≈ are worked out from the molar mass of the structure shown.

The test system of assay [1] is Caenorhabditis elegans. Nature of the assay: Growth inhibition of adult Caenorhabditis elegans measured on day 3 by microscopy. It is filed as functional. The following applies: 72 h.
Assay [2] concerns Caenorhabditis elegans. Nature of the assay: Inhibition of hatch of eggs newly spawned by adult Caenorhabditis elegans measured on day 3. The following applies: 72 h. In kind it is functional.
The subject of assay [3] is Caenorhabditis elegans. The experiment in a line: Inhibition of hatch of eggs newly spawned by adult Caenorhabditis elegans at 17 uM measured on day 3. The settings on record: 72 h. It is filed as functional.
Assay [4] deals with Escherichia coli. Nature of the assay: Antimicrobial activity against Escherichia coli incubated at 37 degC for 24 hrs. In kind it is functional, organism-based.
Assay [5] deals with Staphylococcus aureus. Nature of the assay: Antimicrobial activity against Staphylococcus aureus incubated at 37 degC for 24 hrs. It is filed as functional, organism-based.
The test system of assay [6] is Aspergillus fumigatus. The experiment in a line: Antimicrobial activity against Aspergillus fumigatus incubated at 28 degC for 24 hrs. In kind it is functional, organism-based.
The subject of assay [7] is Candida albicans. The experiment in a line: Antimicrobial activity against Candida albicans incubated at 28 degC for 24 hrs. In kind it is functional, organism-based.
For assay [8], the system named is Pyricularia oryzae. Nature of the assay: Antimicrobial activity against Magnaporthe oryzae incubated at 28 degC for 48 hrs. It is filed as functional, organism-based.
Assay [9] relates to Plasmodium falciparum. The experiment in a line: Antimalarial activity against Plasmodium falciparum K1 after 72 hrs by parasite LDH assay. In kind it is functional, organism-based. The settings on record: K1, 72 h.
Assay [10] concerns HeLa. Nature of the assay: Cytotoxic activity against human HeLa cells after 48 hrs by WST8 assay. It is filed as functional, cell-based.
Assay [11] can be described thus: Cytotoxic activity against human HL60 cells after 48 hrs by WST8 assay. The settings on record: HL-60, 48 h. It is filed as functional, cell-based. In general terms: Formazan colour is commonly taken as a measure of viable cells.
Assay [12] deals with T1, D-amino-acid oxidase (Caenorhabditis elegans, UniProt Q95XG9).
T1 sequence (Q95XG9 whole entry): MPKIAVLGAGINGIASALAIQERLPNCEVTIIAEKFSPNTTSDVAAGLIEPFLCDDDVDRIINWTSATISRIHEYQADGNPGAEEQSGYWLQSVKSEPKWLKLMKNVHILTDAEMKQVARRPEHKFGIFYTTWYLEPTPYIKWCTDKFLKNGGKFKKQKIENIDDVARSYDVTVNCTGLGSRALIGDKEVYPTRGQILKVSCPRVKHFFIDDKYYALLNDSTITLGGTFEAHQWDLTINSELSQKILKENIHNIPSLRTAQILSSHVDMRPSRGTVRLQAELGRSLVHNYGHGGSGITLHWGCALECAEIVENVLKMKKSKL
Nature of the assay: Inhibition of Caenorhabditis elegans DAO incubated for 10 mins.

For assay [13], the target named is T2, D-aspartate oxidase 3 (Caenorhabditis elegans, UniProt O01739).
T2 sequence (O01739 whole entry): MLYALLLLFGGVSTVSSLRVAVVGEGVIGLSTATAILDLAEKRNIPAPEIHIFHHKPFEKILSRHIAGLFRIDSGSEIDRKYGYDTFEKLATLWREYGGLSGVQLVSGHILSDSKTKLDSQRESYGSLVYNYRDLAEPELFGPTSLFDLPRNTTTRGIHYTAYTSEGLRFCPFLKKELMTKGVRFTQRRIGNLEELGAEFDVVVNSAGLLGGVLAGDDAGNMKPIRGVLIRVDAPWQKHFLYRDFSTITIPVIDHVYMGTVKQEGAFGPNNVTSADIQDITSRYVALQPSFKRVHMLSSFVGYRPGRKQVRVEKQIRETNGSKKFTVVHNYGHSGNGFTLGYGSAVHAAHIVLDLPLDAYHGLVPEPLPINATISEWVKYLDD
The experiment in a line: Inhibition of Caenorhabditis elegans DDO3 incubated for 10 mins.

In the case of `Cc1ccc(-c2cnco2)cc1`, the MIC in assay [1] and in [2] was more than 100 µM in each case.
Consider `COc1ccc(-c2c[nH]cn2)cc1`, for which the MIC in assay [1] and in assay [2] was more than 100 µM in each case.
In [3], `COc1ccc(-c2cnco2)cc1` displayed an inhibition at 17 µM of 100%. Also, the MIC was 34 µM (≈ 5.96 µg/mL) in assay [1] and 17 µM (≈ 2.98 µg/mL) in assay [2]. Further, the EC50 in assay [4] is more than 100 µM; in [5] it was more than 100 µM; in [6] it was more than 100 µM; in assay [7] it was more than 100 µM; in assay [8], 4 µM; in [9], more than 100 µM. Moreover, the EC50 in [10] is 30 µM; in assay [11], more than 100 µM; in assay [12], more than 100 µM; in [13], more than 100 µM.
Take `COc1cccc(-c2cnco2)c1`: the minimal inhibitory concentration (MIC) in assay [1] and in assay [2] was more than 100 µM in each case.
Take `COc1ccccc1-c1cnco1`: the minimal inhibitory concentration (MIC) in assay [1] and in assay [2] was more than 100 µM throughout.
On to `COc1ccc(-c2cocn2)cc1`, for which the MIC in assay [1] and in [2] was more than 100 µM each time.
As for `c1ccc(-c2cnco2)cc1`, the MIC in assay [1] and in assay [2] was more than 100 µM in each case.
Turning to `Oc1ccc(-c2cnco2)cc1`, the minimum inhibitory concentration (MIC) in assay [1] and in [2] was more than 100 µM in each case. The EC50 in assay [4] was more than 100 µM; in assay [5] it was more than 100 µM; in assay [6], more than 100 µM; in assay [7], more than 100 µM; in [8] it was 15 µM; in assay [9] it was more than 100 µM. The EC50 in assay [10] was 51 µM; in assay [11], more than 100 µM; in assay [12] it was more than 100 µM; in assay [13], more than 100 µM.
In the case of `CC(=O)Oc1ccc(-c2cnco2)cc1`, the MIC in assay [1] and in assay [2] was more than 100 µM in each case.
On to `CCc1ccc(-c2cnco2)cc1`, for which the MIC in assay [1] and in [2] was more than 100 µM in each case.
Turning to `COC(=O)c1ccc(-c2cnco2)cc1`, the MIC in assay [1] and in [2] was more than 100 µM throughout.
With `O=C(O)c1ccc(-c2cnco2)cc1`, the MIC in assay [1] and in [2] was more than 100 µM throughout.
For `N#Cc1ccc(-c2cnco2)cc1`, the values for the minimum inhibitory concentration (MIC) in assay [1] and in [2] were more than 100 µM and 100 µM (≈ 17 µg/mL), respectively.
On to `CN(C)c1ccc(-c2cnco2)cc1`, for which the MIC in assay [1] is 50 µM (≈ 9.41 µg/mL); in assay [2] it was more than 100 µM.
For `COC(=O)c1cc(-c2cnco2)ccc1OC`, the minimal inhibitory concentration (MIC) in [1] and in assay [2] was more than 100 µM in each case.
Regarding `COc1ccc(-c2cnco2)cc1C(=O)O`, the MIC in [1] and in assay [2] was more than 100 µM in each case.
As to `COc1ccc(-c2ncco2)cc1`, the MIC was 100 µM (≈ 17.5 µg/mL) in assay [1] and more than 100 µM in [2].
The matching figures for `CCOC(=O)c1ccc(-c2ncc(-c3ccc(OC)cc3)o2)cc1`: more than 100 µM and more than 100 µM.
Regarding `COc1ccc(-c2cnc(-c3ccc(C(=O)O)cc3)o2)cc1`, the MIC in assay [1] and in assay [2] was more than 100 µM throughout.
For `COc1ccc(-c2cncs2)cc1`, the results for the MIC in [1] and in assay [2] were 50 µM (≈ 9.56 µg/mL) and more than 100 µM, respectively.

The MIC is the lowest concentration that inhibits growth of the organism. Usually inhibition stands for the change of the read-out against control, counted positive when it falls. Lower therefore signals a response near the control. What is called EC50 is the concentration at which the effect is half-maximal. Low values mean higher potency in that assay, high ones lower potency in that assay.
